# Test results reported in ChEMBL document CHEMBL1201862, “PubChem BioAssay data set” (2004).
# The source made the active and inactive calls.
# Legend:
# Streptokinase A = molecular target: T1, Streptokinase A (Streptococcus pyogenes serotype M1, UniProt P10520); experiment: S. pyogenes streptokinase expression inhibitors, potency, dose response, plasminogen activation absorbance, OD405 (AID 1914); assay type: functional, Streptococcus pyogenes M1 GAS;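 further: secreted streptokinase activity via plasminogen activation per viability signal from cell pellet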
# T1 sequence (P10520 whole entry): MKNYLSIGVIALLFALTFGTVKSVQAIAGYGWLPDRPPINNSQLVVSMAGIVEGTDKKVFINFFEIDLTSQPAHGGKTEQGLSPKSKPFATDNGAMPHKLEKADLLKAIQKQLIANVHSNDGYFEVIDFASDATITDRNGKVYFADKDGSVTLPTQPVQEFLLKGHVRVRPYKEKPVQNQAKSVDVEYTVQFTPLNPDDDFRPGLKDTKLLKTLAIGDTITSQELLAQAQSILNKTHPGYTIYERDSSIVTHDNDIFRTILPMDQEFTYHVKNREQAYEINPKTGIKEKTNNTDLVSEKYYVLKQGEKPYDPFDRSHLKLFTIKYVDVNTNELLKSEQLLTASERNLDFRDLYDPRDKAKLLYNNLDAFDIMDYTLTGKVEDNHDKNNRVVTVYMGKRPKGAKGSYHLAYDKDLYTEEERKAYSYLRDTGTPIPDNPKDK
# Aminopeptidase N = molecular target: T2, Aminopeptidase N (Plasmodium falciparum FcB1/Columbia, UniProt O96935); experiment: P. falciparum M1AAP inhibitors, biochemical, fluorogenic H-Leu-NHMec substrate, 1536-well (AID 1445); set-up: species or system Plasmodium falciparum 3D7, 3D7
# T2 sequence (O96935 whole entry): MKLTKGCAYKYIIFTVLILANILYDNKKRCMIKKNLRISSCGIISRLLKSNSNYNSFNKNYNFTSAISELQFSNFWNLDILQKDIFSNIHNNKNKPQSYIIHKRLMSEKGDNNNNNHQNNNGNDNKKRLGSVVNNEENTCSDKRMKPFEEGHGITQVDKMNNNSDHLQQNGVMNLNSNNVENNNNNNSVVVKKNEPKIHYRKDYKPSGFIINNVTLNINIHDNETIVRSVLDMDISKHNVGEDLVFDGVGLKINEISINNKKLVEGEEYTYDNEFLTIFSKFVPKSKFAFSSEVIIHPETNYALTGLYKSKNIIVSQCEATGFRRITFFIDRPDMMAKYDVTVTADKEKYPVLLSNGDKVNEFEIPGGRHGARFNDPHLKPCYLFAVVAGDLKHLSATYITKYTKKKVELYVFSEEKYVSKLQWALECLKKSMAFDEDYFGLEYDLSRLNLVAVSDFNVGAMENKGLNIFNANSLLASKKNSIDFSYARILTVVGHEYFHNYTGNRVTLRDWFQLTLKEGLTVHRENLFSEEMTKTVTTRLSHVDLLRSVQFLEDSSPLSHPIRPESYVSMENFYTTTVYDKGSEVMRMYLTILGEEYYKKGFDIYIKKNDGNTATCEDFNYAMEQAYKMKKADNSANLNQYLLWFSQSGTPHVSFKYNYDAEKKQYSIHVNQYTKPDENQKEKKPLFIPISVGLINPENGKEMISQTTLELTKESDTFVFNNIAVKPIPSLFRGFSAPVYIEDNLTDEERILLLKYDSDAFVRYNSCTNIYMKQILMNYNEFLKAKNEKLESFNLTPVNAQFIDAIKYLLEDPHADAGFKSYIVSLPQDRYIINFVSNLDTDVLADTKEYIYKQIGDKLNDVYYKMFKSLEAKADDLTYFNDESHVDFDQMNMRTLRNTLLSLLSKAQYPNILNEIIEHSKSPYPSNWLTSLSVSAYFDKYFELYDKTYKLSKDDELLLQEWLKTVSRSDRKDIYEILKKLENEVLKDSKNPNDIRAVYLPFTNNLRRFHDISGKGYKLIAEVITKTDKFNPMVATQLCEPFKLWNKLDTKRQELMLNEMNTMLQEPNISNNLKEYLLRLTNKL
# Streptococcus = experiment: Group A Streptococcus viability loss, dose response, counter-screen for streptokinase expression inhibitor project, luminescence, BacTiterGlo (AID 1915); assay type: functional, organism-based;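 further: potency for reduction of bacterial viability or growth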
# [1] = tested on: Streptococcus sp. 'group A'; experiment: growth inhibition of control SK(-) GAS strain, dose response, counter-screen for streptokinase expression inhibitor project, luminescence, kanamycin, BacTiterGlo, confirmation (AID 1900); assay type: functional, organism-based
# [2] = molecular target: T3, Long-chain-fatty-acid--AMP ligase FadD28 (Mycobacterium tuberculosis, UniProt P9WQ59); experiment: Fluorescence polarization aasay to screen for inhibitors that compete for the binding of FadD28 to a bisubstrate Measured in Biochemical System Using Plate Reader - 2147-01_Inhibitor_Dose_CherryPick_Activity.; assay type: functional, Mycobacterium tuberculosis H37Rv
# T3 sequence (P9WQ59 whole entry): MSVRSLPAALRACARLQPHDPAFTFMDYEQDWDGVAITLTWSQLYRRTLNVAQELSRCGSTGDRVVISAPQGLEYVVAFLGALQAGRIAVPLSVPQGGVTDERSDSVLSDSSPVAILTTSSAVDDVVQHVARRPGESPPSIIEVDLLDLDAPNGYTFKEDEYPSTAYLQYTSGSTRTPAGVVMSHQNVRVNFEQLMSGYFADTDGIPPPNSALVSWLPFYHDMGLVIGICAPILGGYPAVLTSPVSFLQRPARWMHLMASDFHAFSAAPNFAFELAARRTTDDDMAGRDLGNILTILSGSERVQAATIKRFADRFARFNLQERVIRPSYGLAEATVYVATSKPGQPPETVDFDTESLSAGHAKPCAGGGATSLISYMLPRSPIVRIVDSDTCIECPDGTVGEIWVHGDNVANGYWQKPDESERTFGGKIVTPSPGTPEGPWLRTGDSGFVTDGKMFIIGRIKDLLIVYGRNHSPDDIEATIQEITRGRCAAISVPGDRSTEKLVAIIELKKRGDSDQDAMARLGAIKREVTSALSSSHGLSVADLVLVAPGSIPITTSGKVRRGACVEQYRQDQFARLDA
# [3] = molecular target: T4, Short transient receptor potential channel 4 (Mus musculus, UniProt Q9QUQ5); experiment: mouse TRPC4 channel inhibitors, dose response, cell-based, HEK293 TRPC4/mu-opioid, Fluo-4 calcium (AID 434942); assay type: functional;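 further: potency of inhibitors blocking the TRPC4 calcium response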
# T4 sequence (Q9QUQ5 whole entry): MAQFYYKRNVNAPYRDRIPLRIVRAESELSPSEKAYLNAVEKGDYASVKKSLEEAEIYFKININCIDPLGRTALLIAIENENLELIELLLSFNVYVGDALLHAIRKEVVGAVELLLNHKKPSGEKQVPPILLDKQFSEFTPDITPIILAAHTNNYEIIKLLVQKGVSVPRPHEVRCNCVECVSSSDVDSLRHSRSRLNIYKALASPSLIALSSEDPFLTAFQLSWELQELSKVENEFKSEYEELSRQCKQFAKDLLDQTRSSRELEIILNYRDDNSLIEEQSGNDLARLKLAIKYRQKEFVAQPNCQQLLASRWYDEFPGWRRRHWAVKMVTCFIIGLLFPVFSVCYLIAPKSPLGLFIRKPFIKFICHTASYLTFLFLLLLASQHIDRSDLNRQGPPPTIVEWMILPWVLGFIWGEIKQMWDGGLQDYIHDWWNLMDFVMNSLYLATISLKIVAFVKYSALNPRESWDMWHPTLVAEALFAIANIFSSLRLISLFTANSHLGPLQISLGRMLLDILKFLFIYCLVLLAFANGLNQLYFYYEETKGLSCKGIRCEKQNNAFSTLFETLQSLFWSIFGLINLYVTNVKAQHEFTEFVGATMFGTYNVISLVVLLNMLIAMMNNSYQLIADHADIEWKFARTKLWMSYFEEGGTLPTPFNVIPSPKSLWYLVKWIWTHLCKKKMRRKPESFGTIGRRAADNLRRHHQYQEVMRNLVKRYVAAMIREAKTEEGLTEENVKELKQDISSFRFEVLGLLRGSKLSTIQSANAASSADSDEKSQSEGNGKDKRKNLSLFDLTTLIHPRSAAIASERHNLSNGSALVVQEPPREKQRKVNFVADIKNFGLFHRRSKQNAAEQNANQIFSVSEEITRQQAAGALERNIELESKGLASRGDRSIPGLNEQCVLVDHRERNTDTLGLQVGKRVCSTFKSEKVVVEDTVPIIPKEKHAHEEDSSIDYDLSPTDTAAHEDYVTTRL
# [4] = molecular target: T5, Adenosylmethionine-8-amino-7-oxononanoate aminotransferase (Mycobacterium tuberculosis, UniProt P9WQ81); experiment: Mycobacterium tuberculosis BioA enzyme inhibitor Measured in Biochemical System Using Plate Reader - 2163-02_Inhibitor_Dose_CherryPick_Activity.; assay type: functional, Mycobacterium tuberculosis UT205
# T5 sequence (P9WQ81 whole entry): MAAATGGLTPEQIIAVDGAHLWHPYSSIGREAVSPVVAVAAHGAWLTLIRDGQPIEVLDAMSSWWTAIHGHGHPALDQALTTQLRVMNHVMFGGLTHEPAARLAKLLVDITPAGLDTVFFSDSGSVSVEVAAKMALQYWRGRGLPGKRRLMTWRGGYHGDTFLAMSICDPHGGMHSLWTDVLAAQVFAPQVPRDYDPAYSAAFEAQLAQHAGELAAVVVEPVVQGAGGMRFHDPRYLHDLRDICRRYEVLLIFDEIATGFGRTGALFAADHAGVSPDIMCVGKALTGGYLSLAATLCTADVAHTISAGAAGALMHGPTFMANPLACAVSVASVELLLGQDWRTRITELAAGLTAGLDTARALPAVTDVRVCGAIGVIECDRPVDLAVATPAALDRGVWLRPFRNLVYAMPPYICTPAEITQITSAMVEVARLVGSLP
# Cytochrome P450 1A2 = molecular target: T6, Cytochrome P450 1A2 (Homo sapiens, UniProt P05177);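 further: PubChem cytochrome P450 panel assay, CYP1A2 panel member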
# T6 sequence (P05177 whole entry): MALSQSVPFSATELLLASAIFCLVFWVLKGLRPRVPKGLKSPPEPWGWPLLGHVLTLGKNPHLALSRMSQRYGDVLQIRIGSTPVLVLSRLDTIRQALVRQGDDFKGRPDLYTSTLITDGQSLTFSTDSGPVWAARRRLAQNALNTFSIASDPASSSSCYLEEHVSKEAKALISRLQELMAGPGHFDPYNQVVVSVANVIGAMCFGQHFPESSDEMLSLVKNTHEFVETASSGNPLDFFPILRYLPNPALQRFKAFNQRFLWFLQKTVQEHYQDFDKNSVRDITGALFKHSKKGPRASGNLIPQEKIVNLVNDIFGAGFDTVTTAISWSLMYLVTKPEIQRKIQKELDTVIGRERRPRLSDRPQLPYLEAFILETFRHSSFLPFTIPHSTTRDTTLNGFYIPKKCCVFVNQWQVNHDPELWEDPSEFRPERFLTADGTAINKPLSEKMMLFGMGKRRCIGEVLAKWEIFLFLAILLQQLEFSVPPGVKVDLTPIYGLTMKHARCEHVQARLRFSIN
# Genome polyprotein = Genome polyprotein (dengue virus type 2, UniProt P29990); experiment: Dengue-2 NS5 methyltransferase inhibitors, primary screen, biochemical, confirmation dose response (AID 588689); assay type: functional
# Chain of Genome polyprotein (P29990 2492-3391 limits assumed): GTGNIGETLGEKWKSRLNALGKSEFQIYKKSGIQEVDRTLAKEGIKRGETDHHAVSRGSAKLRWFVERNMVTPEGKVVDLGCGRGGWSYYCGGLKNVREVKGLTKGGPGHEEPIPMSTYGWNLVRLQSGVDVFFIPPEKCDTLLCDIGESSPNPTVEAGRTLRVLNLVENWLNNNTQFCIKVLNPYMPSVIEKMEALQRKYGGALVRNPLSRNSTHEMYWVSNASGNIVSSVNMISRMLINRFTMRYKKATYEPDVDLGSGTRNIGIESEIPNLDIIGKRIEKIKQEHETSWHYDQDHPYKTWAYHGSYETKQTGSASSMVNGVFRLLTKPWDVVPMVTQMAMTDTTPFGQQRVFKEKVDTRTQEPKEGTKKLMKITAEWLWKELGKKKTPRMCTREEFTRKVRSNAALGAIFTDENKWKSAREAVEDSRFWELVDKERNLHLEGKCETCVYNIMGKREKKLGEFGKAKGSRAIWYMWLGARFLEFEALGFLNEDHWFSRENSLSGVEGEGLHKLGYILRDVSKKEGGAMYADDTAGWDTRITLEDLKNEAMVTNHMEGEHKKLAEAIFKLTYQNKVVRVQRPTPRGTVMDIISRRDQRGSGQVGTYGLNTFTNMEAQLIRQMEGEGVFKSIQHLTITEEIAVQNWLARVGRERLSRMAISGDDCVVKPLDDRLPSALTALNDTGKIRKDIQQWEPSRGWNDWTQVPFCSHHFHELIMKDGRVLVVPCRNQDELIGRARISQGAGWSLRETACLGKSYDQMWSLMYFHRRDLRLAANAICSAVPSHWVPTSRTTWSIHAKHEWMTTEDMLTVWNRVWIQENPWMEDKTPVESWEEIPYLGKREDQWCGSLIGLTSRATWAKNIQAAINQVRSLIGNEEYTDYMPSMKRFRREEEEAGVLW
# Large T antigen = Large T antigen (Simian virus 40, UniProt P03070); assay type: functional, Betapolyomavirus macacae;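 further: Confirmatory-stage PubChem screen for compounds that inhibit SV40 T antigen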
# Chain of Large T antigen (P03070 whole entry): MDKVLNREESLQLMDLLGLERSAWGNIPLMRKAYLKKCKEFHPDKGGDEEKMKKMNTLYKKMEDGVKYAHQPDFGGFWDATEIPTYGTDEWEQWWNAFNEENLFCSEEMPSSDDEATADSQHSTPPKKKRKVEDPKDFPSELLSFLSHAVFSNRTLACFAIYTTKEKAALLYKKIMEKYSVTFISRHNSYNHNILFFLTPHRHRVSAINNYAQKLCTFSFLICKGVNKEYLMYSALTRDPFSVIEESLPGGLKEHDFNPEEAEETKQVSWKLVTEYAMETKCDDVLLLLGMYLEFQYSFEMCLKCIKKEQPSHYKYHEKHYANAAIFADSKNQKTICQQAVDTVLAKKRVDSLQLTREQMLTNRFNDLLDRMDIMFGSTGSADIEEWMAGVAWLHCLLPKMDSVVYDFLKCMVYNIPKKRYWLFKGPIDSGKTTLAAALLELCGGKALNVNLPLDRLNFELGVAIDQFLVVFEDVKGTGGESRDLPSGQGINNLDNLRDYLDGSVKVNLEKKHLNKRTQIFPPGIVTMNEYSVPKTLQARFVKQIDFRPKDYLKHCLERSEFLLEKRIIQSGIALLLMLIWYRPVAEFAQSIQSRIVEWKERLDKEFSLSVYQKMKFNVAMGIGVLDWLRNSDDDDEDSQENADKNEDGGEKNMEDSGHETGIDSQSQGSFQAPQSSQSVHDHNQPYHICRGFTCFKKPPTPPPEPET
# [5] = molecular target: T7, Low molecular weight phosphotyrosine protein phosphatase (Homo sapiens, UniProt P24666); assay type: functional; conditions: read-out: IC50_Mean;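 further: Dose-response confirmation assay measuring inhibition of LMPTP enzyme activity by fluorescence intensity read-out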
# T7 sequence (P24666 whole entry): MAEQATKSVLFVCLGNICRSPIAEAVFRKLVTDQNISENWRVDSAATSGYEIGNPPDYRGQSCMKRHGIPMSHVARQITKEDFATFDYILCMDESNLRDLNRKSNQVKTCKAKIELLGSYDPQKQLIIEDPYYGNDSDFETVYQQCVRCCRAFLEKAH
# cells = assay type: functional, cell-based
# [6] = molecular target: T8, Nuclear receptor subfamily 0 group B member 1 (Homo sapiens, UniProt P51843); assay type: functional, cell-based;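 further: HEK293T cells transfected with SF-1 and DAX-1 plus StAR promoter luciferase reporter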
# T8 sequence (P51843 whole entry): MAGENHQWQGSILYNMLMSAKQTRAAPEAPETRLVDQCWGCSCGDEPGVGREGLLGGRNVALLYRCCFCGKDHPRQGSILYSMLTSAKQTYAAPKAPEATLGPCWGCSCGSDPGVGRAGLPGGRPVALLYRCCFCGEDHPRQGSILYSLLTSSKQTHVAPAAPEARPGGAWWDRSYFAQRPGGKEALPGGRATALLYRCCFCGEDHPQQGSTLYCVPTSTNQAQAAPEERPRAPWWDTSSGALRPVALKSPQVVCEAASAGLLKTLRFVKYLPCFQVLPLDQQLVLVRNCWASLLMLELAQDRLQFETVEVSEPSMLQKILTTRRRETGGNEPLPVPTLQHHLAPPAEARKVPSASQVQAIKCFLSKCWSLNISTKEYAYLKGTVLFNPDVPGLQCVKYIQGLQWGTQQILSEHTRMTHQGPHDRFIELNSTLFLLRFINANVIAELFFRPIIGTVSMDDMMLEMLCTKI
structure (smiles),measurement,setting,value
Sc1nnc(-c2cc3c(s2)-c2ccccc2CC3)o1,EC50,Streptokinase A,> 150 µM (not active)
same,IC50,Aminopeptidase N,67.4 µM (active)
same,EC50,Streptococcus,23.3 µM (inconclusive)
same,EC50,[1],11.5 µM (active)
same,AC50,[2],24.9 µM (active)
same,EC50,[3],0.944 µM (active)
CN1c2ccc(-c3cccc(C#N)c3)cc2[C@H]2[C@H](CCN2C(=O)CC2CC2)[C@H]1CO,AC50,[4],3.56 µM (active)
O=C(CSc1nc2c(c(=O)n1-c1ccccc1)SCC2)N1CCOCC1,AC50,[4],2.62 µM (active)
CCCc1c(OCCCOc2ccc(OCC(=O)O)cc2)ccc(C(C)=O)c1O,AC50,[4],2.54 µM (active)
same,AC50,Cytochrome P450 1A2,31.6 µM (inconclusive)
Cc1ccc(S(=O)(=O)N2[C@@H](c3cccc(Cl)c3)C(C(=O)O)=CC[C@H]2c2cccc(Cl)c2)cc1,AC50,[2],24.9 µM (active)
same,IC50,Genome polyprotein,48.3 µM (active)
Cc1ccccc1S(=O)(=O)NCC[C@H]1CC[C@@H](NC(=O)Nc2cccc(F)c2)[C@H](CO)O1,AC50,[4],11.3 µM (active)
Nc1ccc2[nH]c(CCCCCCc3nc4cc(N)ccc4[nH]3)nc2c1,IC50,Large T antigen,5.49 µM (active)
same,IC50,[5],20.8 µM (inactive)
C=C(c1ccc2[nH]c(NC(=O)OC)nc2c1)c1cccs1,IC50,cells,> 67.6 µM (inactive)
same,IC50,[6],2.72 µM (active)
